Experimental data published in patent US8802597B2, “Herbicidal pyrimidines” (E I du Pont de Nemours and Company, priority 2003, dated 2014).

Columns and labels:
Format in all cases: in vivo
[1] = tested on: spanishneedles (Bidens bipinnata); test: Test G pre/postemergence
Procedure, shortened: (§1)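 Pre- and postemergence greenhouse test; compound in non-phytotoxic solvent/surfactant mix. Post timing: 2–18 cm plants, 1- to 4-leaf. Visual rating vs controls at 12–21 d, 0 (no effect) to 100 (complete control).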

kochia (Kochia scoparia) [2] = test: Test G pre/postemergence
Procedure, shortened: as §1

[3] = tested on: common purslane (Portulaca oleracea); test: Test G pre/postemergence
Procedure, shortened: as §1

[4] = tested on: Russian thistle (Salsola kali); test: Test G pre/postemergence
Procedure, shortened: as §1

[5] = tested on: lambsquarters (Chenopodium album); test: Test D pre/postemergence; details: scale 0 to 100 (100 = complete control)
Procedure, shortened: (§2)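 Visual injury score, 0–100 (0 = no effect, 100 = complete control), vs untreated controls after 15–25 d in controlled environment. Pre- and postemergence treatments run in parallel; postemergence at 1–4 leaf, 2–18 cm. Compounds in non-phytotoxic solvent with surfactant.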

[6] = tested on: wild mustard (Sinapis arvensis); test: Test D pre/postemergence; details: scale 0 to 100 (100 = complete control)
Procedure, shortened: as §2

kochia (Kochia scoparia) [7] = test: Test D pre/postemergence; details: scale 0 to 100 (100 = complete control)
Procedure, shortened: as §2

[8] = tested on: common chickweed (Stellaria media); test: Test D pre/postemergence; details: scale 0 to 100 (100 = complete control)
Procedure, shortened: as §2

[9] = tested on: pigweed (Amaranthus retroflexus); test: Test D pre/postemergence; details: scale 0 to 100 (100 = complete control)
Procedure, shortened: as §2

[10] = tested on: wild buckwheat (Polygonum convolvulus); test: Test D pre/postemergence; details: scale 0 to 100 (100 = complete control)
Procedure, shortened: as §2

[11] = tested on: Russian thistle (Salsola kali); test: Test D pre/postemergence; details: scale 0 to 100 (100 = complete control)
Procedure, shortened: as §2

[12] = tested on: catchweed bedstraw (galium; Galium aparine); test: Test D pre/postemergence; details: scale 0 to 100 (100 = complete control)
Procedure, shortened: as §2

[13] = tested on: wheat (Triticum aestivum); test: Test D pre/postemergence; details: scale 0 to 100 (100 = complete control)
Procedure, shortened: as §2

[14] = Postemergence, 250 g ai/ha, scale 0 to 100
[15] = Postemergence, 500 g ai/ha, scale 0 to 100
[16] = Postemergence, 62 g ai/ha, scale 0 to 100
[17] = Postemergence, 125 g ai/ha, scale 0 to 100
[18] = Postemergence, 375 g ai/ha, scale 0 to 100
[19] = Preemergence, 62 g ai/ha, scale 0-100
[20] = Preemergence, 125 g ai/ha, scale 0-100
[21] = Preemergence, 250 g ai/ha, scale 0-100
[22] = Preemergence, 500 g ai/ha, scale 0-100
[23] = Preemergence, 500 g ai/ha, scale 0 to 100

CCOC(=O)c1nc(C2CC2)nc(N)c1Br [Compound 1, ethyl 6-amino-5-bromo-2-cyclopropyl-4-pyrimidinecarboxylate]
Plant response rating, Spanishneedles [1, 14]: 95 | Plant response rating, Spanishneedles [1, 15]: 95 | Plant response rating, Spanishneedles [1, 16]: 80 | Plant response rating, Spanishneedles [1, 17]: 95 | Plant response rating, Spanishneedles [1, 18]: 95 | Plant response rating, Spanishneedles [1, 19]: 100 | Plant response rating, Spanishneedles [1, 20]: 100 | Plant response rating, Spanishneedles [1, 21]: 100 | Plant response rating, Spanishneedles [1, 22]: 100 | Plant response rating, Spanishneedles [1, 23]: 100 | Plant response rating, Kochia (kochia (Kochia scoparia) [2]; [18]): 95 | Plant response rating, Kochia (kochia (Kochia scoparia) [2]; [19]): 100 | Plant response rating, Kochia (kochia (Kochia scoparia) [2]; [20]): 100 | Plant response rating, Kochia (kochia (Kochia scoparia) [2]; [21]): 100 | Plant response rating, Kochia (kochia (Kochia scoparia) [2]; [22]): 100 | Plant response rating, Kochia (kochia (Kochia scoparia) [2]; [23]): 100 | Plant response rating, Purslane [3, 14]: 100 | Plant response rating, Purslane [3, 15]: 100 | Plant response rating, Purslane [3, 16]: 80 | Plant response rating, Purslane [3, 17]: 100 | Plant response rating, Purslane [3, 18]: 100 | Plant response rating, Purslane [3, 19]: 10 | Plant response rating, Purslane [3, 20]: 60 | Plant response rating, Purslane [3, 21]: 95 | Plant response rating, Purslane [3, 22]: 100 | Plant response rating, Purslane [3, 23]: 100 | Plant response rating, Russian Thistle [4, 14]: 100 | Plant response rating, Russian Thistle [4, 16]: 100 | Plant response rating, Russian Thistle [4, 17]: 100 | Plant response rating, Russian Thistle [4, 18]: 100 | Plant response rating, Russian Thistle [4, 19]: 100 | Plant response rating, Russian Thistle [4, 20]: 100 | Plant response rating, Russian Thistle [4, 21]: 100 | Plant response rating, Russian Thistle [4, 22]: 100 | Plant response rating, Russian Thistle [4, 23]: 100 | Plant response rating, Lambsquarters ([5]; Postemergence, 16 g ai/ha): 95 | Plant response rating, Lambsquarters ([5]; Postemergence, 31 g ai/ha): 95 | Plant response rating, Lambsquarters ([5]; Postemergence, 62 g ai/ha): 100 | Plant response rating, Lambsquarters ([5]; Postemergence, 125 g ai/ha): 100 | Plant response rating, Lambsquarters ([5]; Preemergence, 16 g ai/ha): 65 | Plant response rating, Lambsquarters ([5]; Preemergence, 31 g ai/ha): 75 | Plant response rating, Lambsquarters ([5]; Preemergence, 62 g ai/ha): 85 | Plant response rating, Lambsquarters ([5]; Preemergence, 125 g ai/ha): 100 | Plant response rating, Mustard, Wild ([6]; Postemergence, 16 g ai/ha): 60 | Plant response rating, Mustard, Wild ([6]; Postemergence, 31 g ai/ha): 70 | Plant response rating, Mustard, Wild ([6]; Postemergence, 62 g ai/ha): 70 | Plant response rating, Mustard, Wild ([6]; Postemergence, 125 g ai/ha): 75 | Plant response rating, Mustard, Wild ([6]; Preemergence, 16 g ai/ha): 50 | Plant response rating, Mustard, Wild ([6]; Preemergence, 31 g ai/ha): 65 | Plant response rating, Mustard, Wild ([6]; Preemergence, 62 g ai/ha): 70 | Plant response rating, Mustard, Wild ([6]; Preemergence, 125 g ai/ha): 90 | Plant response rating, Kochia (kochia (Kochia scoparia) [7]; Postemergence, 16 g ai/ha): 85 | Plant response rating, Kochia (kochia (Kochia scoparia) [7]; Postemergence, 31 g ai/ha): 100 | Plant response rating, Kochia (kochia (Kochia scoparia) [7]; Postemergence, 62 g ai/ha): 100 | Plant response rating, Kochia (kochia (Kochia scoparia) [7]; Postemergence, 125 g ai/ha): 100 | Plant response rating, Kochia (kochia (Kochia scoparia) [7]; Preemergence, 16 g ai/ha): 65 | Plant response rating, Kochia (kochia (Kochia scoparia) [7]; Preemergence, 31 g ai/ha): 75 | Plant response rating, Kochia (kochia (Kochia scoparia) [7]; Preemergence, 62 g ai/ha): 100 | Plant response rating, Kochia (kochia (Kochia scoparia) [7]; Preemergence, 125 g ai/ha): 100 | Plant response rating, Chickweed ([8]; Postemergence, 16 g ai/ha): 65 | Plant response rating, Chickweed ([8]; Postemergence, 31 g ai/ha): 65 | Plant response rating, Chickweed ([8]; Postemergence, 62 g ai/ha): 65 | Plant response rating, Chickweed ([8]; Postemergence, 125 g ai/ha): 85 | Plant response rating, Chickweed ([8]; Preemergence, 16 g ai/ha): 60 | Plant response rating, Chickweed ([8]; Preemergence, 31 g ai/ha): 65 | Plant response rating, Chickweed ([8]; Preemergence, 62 g ai/ha): 70 | Plant response rating, Chickweed ([8]; Preemergence, 125 g ai/ha): 75 | Plant response rating, Pigweed ([9]; Postemergence, 16 g ai/ha): 60 | Plant response rating, Pigweed ([9]; Postemergence, 31 g ai/ha): 100 | Plant response rating, Pigweed ([9]; Postemergence, 62 g ai/ha): 100 | Plant response rating, Pigweed ([9]; Postemergence, 125 g ai/ha): 100 | Plant response rating, Pigweed ([9]; Preemergence, 16 g ai/ha): 60 | Plant response rating, Pigweed ([9]; Preemergence, 31 g ai/ha): 70 | Plant response rating, Pigweed ([9]; Preemergence, 62 g ai/ha): 95 | Plant response rating, Pigweed ([9]; Preemergence, 125 g ai/ha): 100 | Plant response rating, Buckwheat, Wild ([10]; Postemergence, 16 g ai/ha): 50 | Plant response rating, Buckwheat, Wild ([10]; Postemergence, 31 g ai/ha): 80 | Plant response rating, Buckwheat, Wild ([10]; Postemergence, 62 g ai/ha): 80 | Plant response rating, Buckwheat, Wild ([10]; Postemergence, 125 g ai/ha): 80 | Plant response rating, Buckwheat, Wild ([10]; Preemergence, 16 g ai/ha): 45 | Plant response rating, Buckwheat, Wild ([10]; Preemergence, 31 g ai/ha): 60 | Plant response rating, Buckwheat, Wild ([10]; Preemergence, 62 g ai/ha): 70 | Plant response rating, Buckwheat, Wild ([10]; Preemergence, 125 g ai/ha): 75 | Plant response rating, Russian Thistle ([11]; Postemergence, 16 g ai/ha): 45 | Plant response rating, Russian Thistle ([11]; Postemergence, 31 g ai/ha): 65 | Plant response rating, Russian Thistle ([11]; Postemergence, 62 g ai/ha): 85 | Plant response rating, Russian Thistle ([11]; Postemergence, 125 g ai/ha): 100 | Plant response rating, Russian Thistle ([11]; Preemergence, 16 g ai/ha): 100 | Plant response rating, Russian Thistle ([11]; Preemergence, 31 g ai/ha): 100 | Plant response rating, Russian Thistle ([11]; Preemergence, 62 g ai/ha): 100 | Plant response rating, Russian Thistle ([11]; Preemergence, 125 g ai/ha): 100 | Plant response rating, Galium ([12]; Postemergence, 16 g ai/ha): 95 | Plant response rating, Galium ([12]; Postemergence, 31 g ai/ha): 100 | Plant response rating, Galium ([12]; Postemergence, 62 g ai/ha): 100 | Plant response rating, Galium ([12]; Postemergence, 125 g ai/ha): 100 | Plant response rating, Galium ([12]; Preemergence, 16 g ai/ha): 80 | Plant response rating, Galium ([12]; Preemergence, 31 g ai/ha): 80 | Plant response rating, Galium ([12]; Preemergence, 62 g ai/ha): 100 | Plant response rating, Galium ([12]; Preemergence, 125 g ai/ha): 100 | Plant response rating, Wheat ([13]; Postemergence, 16 g ai/ha): 40 | Plant response rating, Wheat ([13]; Postemergence, 31 g ai/ha): 80 | Plant response rating, Wheat ([13]; Postemergence, 62 g ai/ha): 90 | Plant response rating, Wheat ([13]; Postemergence, 125 g ai/ha): 100 | Plant response rating, Wheat ([13]; Preemergence, 16 g ai/ha): 35 | Plant response rating, Wheat ([13]; Preemergence, 31 g ai/ha): 70 | Plant response rating, Wheat ([13]; Preemergence, 62 g ai/ha): 70 | Plant response rating, Wheat ([13]; Preemergence, 125 g ai/ha): 70
